Measurements taken from ChEMBL document CHEMBL1126725, “Enantioselectivity of cocaine recognition sites: binding of (1S)- and (1R)-2 beta-carbomethoxy-3 beta-(4-iodophenyl)tropane (beta-CIT) to monoamine transporters” (J Med Chem, 1993).
pIC50: −log10 of the molar value.

Key:
[1] = target: Sodium-dependent serotonin transporter (Homo sapiens, UniProt P31645); assay: Compounds binding ability to serotonin transporter was evaluated by displacing [3H]paroxetine in baboon brain; set-up: species or system Papio hamadryas
Sequence of Sodium-dependent serotonin transporter (P31645 whole entry): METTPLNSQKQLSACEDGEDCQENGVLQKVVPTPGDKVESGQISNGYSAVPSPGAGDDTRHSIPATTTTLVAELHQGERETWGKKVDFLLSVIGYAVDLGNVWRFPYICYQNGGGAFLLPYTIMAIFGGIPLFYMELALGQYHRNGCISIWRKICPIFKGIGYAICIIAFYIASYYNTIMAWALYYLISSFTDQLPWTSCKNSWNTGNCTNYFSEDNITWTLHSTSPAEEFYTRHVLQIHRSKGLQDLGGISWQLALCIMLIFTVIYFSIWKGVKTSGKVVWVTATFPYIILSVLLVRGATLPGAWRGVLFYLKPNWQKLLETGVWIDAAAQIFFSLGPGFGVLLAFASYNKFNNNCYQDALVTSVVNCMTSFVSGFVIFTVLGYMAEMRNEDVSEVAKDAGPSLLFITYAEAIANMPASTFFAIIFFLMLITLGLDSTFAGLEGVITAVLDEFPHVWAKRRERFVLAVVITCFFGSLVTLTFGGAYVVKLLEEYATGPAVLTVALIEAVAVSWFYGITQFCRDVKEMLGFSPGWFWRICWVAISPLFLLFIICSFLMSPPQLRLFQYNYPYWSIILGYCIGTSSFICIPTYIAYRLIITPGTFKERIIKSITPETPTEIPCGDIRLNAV

Rattus norvegicus = species: Rattus norvegicus; assay: (§1) Tested for its ability to displace [125I]- (1R)-beta-CIT with rat striatal membranes; set-up: species or system Membrane; details: Striatum
[2] = Tested for its ability to displace [125I]- (1R)-beta-CIT with rat cortical membranes
[3] = as §1; set-up: species or system Striatum, Membrane

Compound `COC(=O)C1C2CC[C@H](C[C@@H]1c1ccc(I)cc1)N2C` (stereo not given in full) has a pIC50 [1] of 8.42, a pIC50 (Rattus norvegicus) of 9.38 and a pIC50 [2] of 9.26.

`COC(=O)[C@@H]1C2CC[C@H](C[C@@H]1c1ccc(I)cc1)N2C` showed a pIC50 [2] of 6.35 and a pIC50 [3] of 5.24.
